Laboratory results reported in publication PMC10636063, “Progesterone activation of β1-containing BK channels involves two binding sites” (Nature Communications, 2023).
Several values for one entry are separate records, joined by “and”; a condition that tells them apart may be missing. Equal values may be shown once.

How the values were obtained:
[1] = biological target: T1, cbv1+β1Y42V (Rattus norvegicus, UniProt P97678, Y42V); assay: Channel activity (NPo) in POPE/POPS bilayers, cbv1+β1Y42V; assay type: biochemical
T1 construct: made in house; host or cells: CHO cells, transient transfection; sucrose-gradient membrane preparation
Excerpt: (§1) BK channel-forming slo1 cDNA (cbv1 isoform; AY330293) was cloned from rat cerebral artery SM cells, and inserted into pcDNA3.1 vector as described. BK β1 cDNA (KCNMB1 product; NP_011452; FJ154955) were isolated from rat cerebral artery SM cells and cloned as described. β4 cDNA (KCNMB4; NP_055320; AY028605) were generously provided by Dr. Ligia Toro. CHO cells were transiently transfected with cbv1 ± β1-, or β4-carrying pcDNA3.1 using X-tremeGENE HP (Sigma-Aldrich). […]
(§2) Proteins for electrophysiological recordings in artificial lipid bilayers remained untagged. […] BK channel-mediated ionic current was recorded in planar lipid bilayers consisting of a POPE:POPS 3:1 (w/w) mixture. […]
(§3) Patch-clamp and bilayer data were analyzed using Clampfit 10.7 software (Molecular Devices). […] Drug-induced NPo changes were determined by comparing baseline NPo (i.e., NPo with the patch/cell perfused with bath solution) to the NPo from the same patch/cell exposed to the agent under study (DMSO/PROG/oxime) dissolved in bath solution. NPo and mean open time values were automatically calculated using Clampfit 10.7, the latter using a 50% threshold detection event.

[2] = biological target: T2, cbv1+β1Y32F (Rattus norvegicus, UniProt P97678, Y32F); assay: Channel activity (NPo) in POPE/POPS bilayers, cbv1+β1Y32F; assay type: biochemical
T2 construct: made in house; host or cells: CHO cells, transient transfection; sucrose-gradient membrane preparation
Excerpt: as §1, §2, §3

[3] = test system: BK β4 subunit (KCNMB4 product); assay: Thermal unfolding (MST) of purified wt β4; assay type: binding; design: delta (Δ) of onset to inflection point: unit not given here
Excerpt: (§4) BK channel-forming slo1 cDNA (cbv1 isoform; AY330293) was cloned from rat cerebral artery SM cells, and inserted into pcDNA3.1 vector as described. BK β1 cDNA (KCNMB1 product; NP_011452; FJ154955) were isolated from rat cerebral artery SM cells and cloned as described. β4 cDNA (KCNMB4; NP_055320; AY028605) were generously provided by Dr. Ligia Toro. CHO cells were transiently transfected with cbv1 ± β1-, or β4-carrying pcDNA3.1 using X-tremeGENE HP (Sigma-Aldrich). Mutations to β1/4 cDNAs were conducted by Genscript, with sequences being confirmed to be >99% identical to KCNMB1 product; NP_011452 or β4 KCNMB4; NP_055320; respectively. β1/4 and mutant constructs were flag-tagged (DYKDDDDK-tag) by Genscript services for subsequent immunoprecipitation and use in microscale thermophoresis studies.
(§5) Wt β1, wt β4 and mutant constructs were purified by immunoprecipitation using Dynabeads Protein G Kit (10007D by Invitrogen) and following the manufacturer’s instructions. […] The unfolding profile of a protein is a plot of its fluorescence signal against temperature. […] During the heating process, fluorescence is recorded at 330 and 350 nm. The resulting fluorescence ratio change is then analyzed for onset and inflection points. The temperature of onset and inflection is determined using built-in analysis function in Nanotemper PR.therm-control software. […]

[4] = test system: slo1 (cbv1 isoform)+β4 BK channels; assay: Channel activity (NPo) in POPE/POPS bilayers, cbv1+β4; assay type: biochemical, rat; settings: 10 μM
Excerpt: as §1, §2, §3

[5] = test system: BK channel, construct not given; assay: Channel activity (NPo) time course, Fig 4E block headed only '10 uM PROG'; assay type: biochemical
[6] = test system: β1-β4 chimera (loop of β4 with β1 TMs); assay: Thermal unfolding (MST) of β1-β4 chimera; assay type: binding; settings: 0.004 μM
Excerpt: as §4, §5

[7] = biological target: T3, β1W87F (Rattus norvegicus, UniProt P97678, W87F); assay: Thermal unfolding (MST) of β1W87F; assay type: binding; settings: 0.004 and 4.1 µM
T3 construct: FLAG (DYKDDDDK); made in house; host or cells: CHO cells, transient transfection, anti-flag immunoprecipitation
Excerpt: as §4, §5

[8] = biological target: T4, slo1 (cbv1) homotetramers (Rattus norvegicus, UniProt Q62976); assay: Channel activity (NPo) in POPE/POPS bilayers, cbv1 homomers; assay type: biochemical
T4 construct: made in house; host or cells: CHO cells, transient transfection; sucrose-gradient membrane preparation
Excerpt: as §4
Proteins for electrophysiological recordings in artificial lipid bilayers remained untagged. Cells were transiently transfected as described above, pelleted and re-suspended on ice in 10 ml of buffer solution of the following composition (mM): 30 KCl, 2 MgCl2, 10 HEPES, 5 EGTA; pH 7.2. A membrane preparation was obtained using a sucrose gradient as described. Aliquots were stored at −80 °C. BK channel-mediated ionic current was recorded in planar lipid bilayers consisting of a POPE:POPS 3:1 (w/w) mixture. Lipid mixtures were dried under N2 and re-suspended in 25 mg/ml of n-decane BK currents following incorporation into horizontal bilayers at 300/30 mM cis/trans gradient as detailed elsewhere. Ion currents were obtained during a 10-min gap-free recording at 0 mV in the presence of 0.01, 10 μM PROG, 10 μM PROG-oxime, or vehicle control (dimethyl sulfoxide; DMSO). Currents were obtained in gap-free mode using a Warner BC-525D amplifier, low pass-filtered at 1 kHz and sampled at 5 kHz with Digidata 1550B/pCLAMP 11 (Molecular Devices). For comparison with previous data from us[16],[17],[45]–[47], studies were conducted at 20–22 °C. PROG stock, oxime stock or vehicle control (DMSO) was added to the bilayer cis chamber to reach final concentrations (0.01–10 µM), with all compounds being dissolved with the same concentration of DMSO (0.1%); n = 5–10 for each group.
Patch-clamp and bilayer data were analyzed using Clampfit 10.7 software (Molecular Devices). NPo was used as an index of channel steady-state activity where N = number of channels in the patch (defined as a maximal number of opening levels at Po≤1) and Po=single channel open probability. Drug-induced NPo changes were determined by comparing baseline NPo (i.e., NPo with the patch/cell perfused with bath solution) to the NPo from the same patch/cell exposed to the agent under study (DMSO/PROG/oxime) dissolved in bath solution. NPo and mean open time values were automatically calculated using Clampfit 10.7, the latter using a 50% threshold detection event.

T1 sequence (P97678 whole entry Y42V): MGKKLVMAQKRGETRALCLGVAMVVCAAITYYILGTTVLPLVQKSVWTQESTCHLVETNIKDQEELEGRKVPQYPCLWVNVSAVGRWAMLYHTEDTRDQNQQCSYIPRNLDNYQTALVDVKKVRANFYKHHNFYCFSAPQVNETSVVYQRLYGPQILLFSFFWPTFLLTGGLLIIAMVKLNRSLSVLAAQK
T1 sequence (Q62976 1-1148 isoform Q62976-2 partner): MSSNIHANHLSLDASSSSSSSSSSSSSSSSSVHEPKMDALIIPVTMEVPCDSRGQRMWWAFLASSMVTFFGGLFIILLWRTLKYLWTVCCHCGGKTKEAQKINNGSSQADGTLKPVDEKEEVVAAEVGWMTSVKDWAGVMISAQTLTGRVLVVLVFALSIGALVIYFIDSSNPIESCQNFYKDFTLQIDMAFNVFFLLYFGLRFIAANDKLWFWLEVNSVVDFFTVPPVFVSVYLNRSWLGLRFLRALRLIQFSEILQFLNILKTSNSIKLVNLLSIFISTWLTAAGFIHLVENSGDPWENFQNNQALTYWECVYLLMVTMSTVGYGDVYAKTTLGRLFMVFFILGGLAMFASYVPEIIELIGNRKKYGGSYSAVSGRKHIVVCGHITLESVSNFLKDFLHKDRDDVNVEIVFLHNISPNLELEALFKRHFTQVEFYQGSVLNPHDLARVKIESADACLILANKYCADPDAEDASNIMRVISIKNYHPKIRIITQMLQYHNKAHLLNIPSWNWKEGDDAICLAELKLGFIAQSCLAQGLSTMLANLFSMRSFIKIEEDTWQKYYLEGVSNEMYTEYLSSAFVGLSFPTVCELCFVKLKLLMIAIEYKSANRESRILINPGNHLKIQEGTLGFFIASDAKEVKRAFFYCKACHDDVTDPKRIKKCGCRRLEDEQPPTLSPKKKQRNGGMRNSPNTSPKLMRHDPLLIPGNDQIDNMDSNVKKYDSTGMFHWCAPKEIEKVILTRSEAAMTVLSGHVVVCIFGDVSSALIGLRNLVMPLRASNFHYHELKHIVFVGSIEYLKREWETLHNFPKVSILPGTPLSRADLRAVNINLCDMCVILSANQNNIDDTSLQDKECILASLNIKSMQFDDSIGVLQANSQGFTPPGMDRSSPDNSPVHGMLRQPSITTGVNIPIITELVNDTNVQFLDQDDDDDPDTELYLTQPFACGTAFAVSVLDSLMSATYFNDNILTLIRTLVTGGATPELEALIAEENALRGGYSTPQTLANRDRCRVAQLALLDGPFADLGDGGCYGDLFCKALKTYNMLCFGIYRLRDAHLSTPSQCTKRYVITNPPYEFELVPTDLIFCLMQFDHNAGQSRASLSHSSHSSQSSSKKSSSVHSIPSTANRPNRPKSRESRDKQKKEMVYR
T2 sequence (P97678 whole entry Y32F): as the sequence (P97678 whole entry Y42V) above, with Y32F, V42Y counted along it
T2 sequence (Q62976 1-1148 isoform Q62976-2 partner): as the sequence (Q62976 1-1148 isoform Q62976-2 partner) above
T4 sequence (Q62976 1-1148 isoform Q62976-2): as the sequence (Q62976 1-1148 isoform Q62976-2 partner) above
T3 sequence (P97678 whole entry W87F): as the sequence (P97678 whole entry Y42V) above, with V42Y, W87F counted along it

Question: With CC(=O)[C@H]1CC[C@H]2[C@@H]3CCC4=CC(=O)CC[C@]4(C)[C@H]3CC[C@]12C [PROG, Progesterone] as the molecule, how does the “action on channel activity (NPo)” value ([1]; 10 µM, vs DMSO) read?
Answer: Its value is “significantly activated”.

Question: What about the “channel activity (NPo) with prog, normalized” value ([1]; SFig3A, cbv1+y42v, individual bilayers) of the same molecule?
Answer: Its value is 1.4717 and 1.041 and 1.9292 and 1.306 and 1.182.

Question: What about the “action on channel activity (NPo)” value ([2]; 10 µM, vs DMSO) of the same molecule?
Answer: Its value is “significantly activated”.

Question: And the “channel activity (NPo) with prog, normalized” value ([2]; SFig3A, cbv1+y32f, individual bilayers)?
Answer: Its value is 3.7931 and 1.379 and 2.626 and 0.9886 and 1.589.

Question: And the “delta (Δ) of onset to inflection point” value ([3]; 10 μM PROG, individual records (Fig 1C))?
Answer: Its value is 24.8 and 1.81 and 4.188 and 7.2 and 3.495 and 5.4.

Question: And the “effect on thermal unfolding / binding” value ([3]; 4–10 μM)?
Answer: The value was “exerted a similar effect on the thermal unfolding of β4”.

Question: And the “action on channel activity (NPo)” value [4]?
Answer: The value was “readily and robustly activated”.

Question: What about the “normalized NPo, time course Fig 4E” value ([5]; time 1 min (normalisation reference)) of the same molecule?
Answer: The value was 1.

Question: What about the “normalized NPo, time course Fig 4E” value ([5]; time 2 min) of the same molecule?
Answer: Its value is 0.9853 and 1 and 0.9322 and 1.014 and 0.7178.

Question: And the “normalized NPo, time course Fig 4E” value ([5]; time 4 min)?
Answer: Its value is 1.015 and 1.069 and 1.029 and 1.047 and 1.067.

Question: What about the “normalized NPo, time course Fig 4E” value ([5]; time 5 min) of the same molecule?
Answer: The value was 1.11 and 1.053 and 1.066 and 1.023 and 1.182.

Question: What about the “normalized NPo, time course Fig 4E” value ([5]; time 6 min) of the same molecule?
Answer: Its value is 1.088 and 1.041 and 1.129 and 1.028 and 1.207.

Question: What about the “normalized NPo, time course Fig 4E” value ([5]; time 7 min) of the same molecule?
Answer: The value was 1.162 and 1.118 and 1.064 and 0.8935 and 1.1318.

Question: And the “normalized NPo, time course Fig 4E” value ([5]; time 8 min)?
Answer: The value was 1.096 and 1.061 and 1.045 and 1.148 and 1.63.

Question: What about the “normalized NPo, time course Fig 4E” value ([5]; time 10 min) of the same molecule?
Answer: The value was 1.11 and 0.7114 and 1.049 and 1.394 and 1.416.

Question: What about the “effect on thermal unfolding / binding” value [6] of the same molecule?
Answer: Its value is “still bound and destabilized the protein structure”.

Question: What about the “effect on thermal unfolding / binding” value [7] of the same molecule?
Answer: The value was “loss of PROG binding”.

Question: What about the NPo/NPobasal ([8]; 10 µM PROG, min 2, single records) of the same molecule?
Answer: The NPo/NPobasal was 1.014 and 0.7178 and 0.9853 and 1 and 0.9322.

Question: What about the NPo/NPobasal ([8]; 10 µM PROG, min 4, single records) of the same molecule?
Answer: Its NPo/NPobasal is 1.047 and 1.067 and 1.015 and 1.069 and 1.029.

Question: What about the NPo/NPobasal ([8]; 10 µM PROG, min 5, single records) of the same molecule?
Answer: The NPo/NPobasal was 1.023 and 1.182 and 1.11 and 1.053 and 1.066.

Question: And the NPo/NPobasal ([8]; 10 µM PROG, min 6, single records)?
Answer: The NPo/NPobasal was 1.028 and 1.207 and 1.088 and 1.041 and 1.129.

Question: What about the NPo/NPobasal ([8]; 10 µM PROG, min 7, single records) of the same molecule?
Answer: The NPo/NPobasal was 0.8935 and 1.1318 and 1.162 and 1.118 and 1.064.

Question: What about the NPo/NPobasal ([8]; 10 µM PROG, min 8, single records) of the same molecule?
Answer: Its NPo/NPobasal is 1.148 and 1.63 and 1.096 and 1.061 and 1.045.

Question: What about the NPo/NPobasal ([8]; 10 µM PROG, min 10, single records) of the same molecule?
Answer: Its NPo/NPobasal is 1.394 and 1.416 and 1.11 and 0.7114 and 1.049.

Question: What about the “maximal activity (NPo/NPobasal)” value ([8]; 10 µM PROG, single records (Fig 1I)) of the same molecule?
Answer: The value was 1.053 and 1.066 and 1.023 and 1.182 and 1.11.

Question: What about the “action on channel activity (NPo)” value ([8]; 10 μM, up to 10 min) of the same molecule?
Answer: Its value is “consistently failed to activate the homomeric channels”.
